The results in this text go back to PubChem BioAssay (NCI).

Some test systems named below: BT-549 breast; COLO 205 colon; HS 578T breast; MALME-3M melanoma; NCI-H226 lung; NCI-H460 lung; NCI/ADR-RES ovarian; OVCAR-5 ovarian; SNB-75 CNS; SR leukemia.
Test in all cases: DTP human tumour cell line panel, 48 h

Values joined by “and” are separate entries in the source; they are usually repeats but may differ in a detail not shown here. Equal values may be shown once.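 Following 48 hours of exposure in 96-well plates, responses at five concentrations were used to interpolate endpoints linearly. GI50 marks 50% less growth. Definition used: TGI = concentration required for complete inhibition of growth.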

With `Cc1c2ncccc2c(C)c2c1[nH]c1ccc(O)cc12`, the TGI (usually the concentration at which net growth stops) in the test on BT-549 breast was 29.3 µM; with COLO 205 colon it was 24.3 µM and 111 µM; in the test on HS 578T breast, 21.2 µM and 84.8 µM; in the test on MALME-3M melanoma, 23.2 µM and 103 µM; in the test on NCI-H226 lung it was 22.2 µM and 17.6 µM; with NCI-H460 lung it was 12.8 µM and 7.17 µM. The TGI in the test on NCI/ADR-RES ovarian was 21 µM; in the test on OVCAR-5 ovarian, 24.4 µM and 120 µM; in the test with SR leukemia it was 7.31 µM and 18.9 µM. In addition, the GI50 (as a rule, the concentration at which growth is held to half of that of the control) is 23.1 µM with COLO 205 colon; 7.84 µM in the test on HS 578T breast; 6.44 µM and 32.7 µM in the test on MALME-3M melanoma; 7.8 µM in the test on NCI-H226 lung; 2.78 µM and 1.6 µM in the test on NCI-H460 lung; 4.08 µM in the test on NCI/ADR-RES ovarian. Also, the GI50 is 46.6 µM in the test with OVCAR-5 ovarian; 7.45 µM and 15.2 µM in the test with SNB-75 CNS; 2.91 µM and 2.48 µM with SR leukemia.
In the case of `COc1ccc2c(CN3CCC(CO)CC3)cc3cc4c(cc3c2c1)OCO4`, the GI50 in the test with BT-549 breast was 0.6 µM; in the test with COLO 205 colon it was 0.122 µM; in the test on HS 578T breast, 0.5 µM; in the test on MALME-3M melanoma it was 0.199 µM; with NCI-H226 lung it was 0.225 µM; in the test on NCI-H460 lung, 0.143 µM. Besides, the GI50 is 0.255 µM in the test with NCI/ADR-RES ovarian, 0.344 µM in the test with OVCAR-5 ovarian, 0.474 µM in the test on SNB-75 CNS and 0.0666 µM in the test with SR leukemia. Further, the TGI in the test on BT-549 breast stood at 3.87 µM; in the test with COLO 205 colon it was 1.07 µM; with HS 578T breast, 12.4 µM; with MALME-3M melanoma, 0.799 µM; in the test with NCI-H226 lung it was 0.56 µM; in the test with NCI-H460 lung, 3.21 µM. In addition, the TGI with NCI/ADR-RES ovarian was found to be 10.4 µM; with OVCAR-5 ovarian, 10.6 µM; in the test with SNB-75 CNS it was 2 µM; with SR leukemia, 0.712 µM.
As to `C=C1C(=O)OC2C1C(OC(=O)/C(C)=C/C)CC(O)(CCl)C1C(OC(C)=O)C=C(C)C21O` (centres undefined), the TGI with BT-549 breast was 22.8 µM; in the test with COLO 205 colon, 24.3 µM; with HS 578T breast it was over 100 µM; with MALME-3M melanoma it was 14.9 µM; in the test with NCI-H226 lung, over 61.3 µM; with NCI-H460 lung, 46.1 µM. Further, the TGI with NCI/ADR-RES ovarian is 61 µM; in the test with OVCAR-5 ovarian, 31.9 µM; in the test on SNB-75 CNS, 64.6 µM; in the test on SR leukemia, 26.1 µM.
For the compound `C[C@@H](Oc1cc(-c2cnn(C3CCNCC3)c2)cnc1N)c1c(Cl)ccc(F)c1Cl`, the GI50 in the test on BT-549 breast was 5.24 µM; in the test with COLO 205 colon, 0.42 µM; with HS 578T breast it was 0.966 µM; in the test with MALME-3M melanoma, 1.22 µM; with NCI-H226 lung it was 0.701 µM; in the test on NCI-H460 lung, 0.662 µM. The figures for the GI50 in the test with NCI/ADR-RES ovarian, in the test on OVCAR-5 ovarian and in the test with SR leukemia were 7.38 µM, 1.14 µM and 0.0453 µM, respectively. Moreover, the TGI was over 10 µM with BT-549 breast; 1.57 µM in the test on COLO 205 colon; 6.25 µM in the test on HS 578T breast; 2.61 µM in the test on MALME-3M melanoma; over 10 µM in the test with NCI-H226 lung; 9.32 µM with NCI-H460 lung. Moreover, the figures for the TGI with NCI/ADR-RES ovarian, in the test on OVCAR-5 ovarian and with SR leukemia were over 10 µM, over 10 µM and 1.09 µM, respectively.
As for `O=C(O)C(Cc1ccccc1-c1ccccc1)C(=O)O`, the TGI with BT-549 breast, in the test with COLO 205 colon, in the test with HS 578T breast, with MALME-3M melanoma, in the test on NCI-H226 lung and in the test on NCI-H460 lung was over 100 µM throughout. Further, the TGI in the test with NCI/ADR-RES ovarian, in the test on OVCAR-5 ovarian, in the test on SNB-75 CNS and in the test on SR leukemia was over 100 µM each time.
`CCN(CC)c1ccc2[nH]c3c(C(N)=O)cc(=O)c(=O)c=3oc2c1`: the GI50 with BT-549 breast was 1.7 µM; in the test with COLO 205 colon, 3.09 µM; with HS 578T breast, 0.663 µM; in the test on MALME-3M melanoma, 1.16 µM; in the test on NCI-H226 lung it was 2.49 µM; with NCI-H460 lung it was 1.34 µM. For the same compound, the GI50 with NCI/ADR-RES ovarian is 1.72 µM; in the test with OVCAR-5 ovarian it was 3.66 µM; in the test with SNB-75 CNS it was 2.04 µM; with SR leukemia, 2.84 µM. The TGI in the test with BT-549 breast is 5.17 µM; in the test with COLO 205 colon, 11.3 µM; in the test on HS 578T breast it was over 100 µM; with MALME-3M melanoma it was 2.96 µM; with NCI-H226 lung, 7.54 µM; in the test with NCI-H460 lung, 12.6 µM. For the same compound, the TGI worked out at 11.8 µM in the test with NCI/ADR-RES ovarian, 33.4 µM in the test on OVCAR-5 ovarian, 8.59 µM in the test with SNB-75 CNS and 8.74 µM with SR leukemia.
Consider `COc1cccc(-c2nc(-c3ccc(NS(=O)(=O)c4ccccc4)cc3)[nH]c2-c2ccnc(Br)c2)c1`, for which the GI50 with BT-549 breast was 2.72 µM; in the test with COLO 205 colon, 2.66 µM; in the test with HS 578T breast it was 1.71 µM; in the test with MALME-3M melanoma, 1.76 µM; in the test on NCI-H226 lung, 2.91 µM; in the test with NCI-H460 lung it was 2.85 µM. Also, the GI50 in the test on NCI/ADR-RES ovarian was 3.44 µM; in the test with OVCAR-5 ovarian, 4.17 µM; in the test with SNB-75 CNS, 1.92 µM; in the test with SR leukemia, 2.85 µM. The TGI in the test on BT-549 breast was 9.21 µM; in the test with COLO 205 colon, 12.4 µM; in the test on HS 578T breast it was 5.17 µM; in the test on MALME-3M melanoma it was 5.22 µM; in the test on NCI-H226 lung it was over 100 µM; in the test with NCI-H460 lung it was 8.71 µM. Also, the total growth inhibition concentration (TGI) in the test on NCI/ADR-RES ovarian, with OVCAR-5 ovarian, in the test on SNB-75 CNS and with SR leukemia was over 100 µM in each case.
Regarding `COc1cc(-c2cc(C(=O)Nc3nc4ccccc4s3)nc3cc(-c4ccccc4)nn23)cc(OC)c1OC`, the GI50 in the test on BT-549 breast was 6.33 µM; in the test on HS 578T breast, 4.7 µM; in the test with MALME-3M melanoma, 12.4 µM; with NCI-H226 lung, 27.5 µM; in the test with NCI-H460 lung it was 29.1 µM; in the test with NCI/ADR-RES ovarian, 19.6 µM. In addition, the GI50 in the test with OVCAR-5 ovarian is over 100 µM; in the test on SNB-75 CNS it was 2.77 µM; in the test on SR leukemia it was 19.7 µM. The TGI in the test with BT-549 breast was 47 µM; in the test with HS 578T breast, over 100 µM; in the test on MALME-3M melanoma, 56.2 µM; in the test on NCI-H226 lung it was over 100 µM; with NCI-H460 lung, over 100 µM; in the test with NCI/ADR-RES ovarian, over 100 µM. Moreover, the TGI is over 100 µM in the test on OVCAR-5 ovarian, 16.1 µM with SNB-75 CNS and 52.5 µM in the test with SR leukemia.
